Source: patent publication US12565640B2, “Method for inducing ureteric bud-like tissue” (Kyoto University, priority 2017, dated 2026)
“Also recorded” adds a separate entry of the source.

Legend:
[1] = system: anterior primitive streak (APS) cells; test: Induction of anterior intermediate mesoderm cells from hiPSCs via anterior primitive streak (immunostaining, flow cytometry); format: cell-based, human; conditions: for effect on induction efficiency / differentiation of OSR1^+GATA3^+ cells: added to the anterior intermediate mesoderm induction stage, 10 ng/ml BMP4 or 0.1 μM LDN193189
Experimental: Undifferentiated hiPSCs/ESCs were plated at a density of 2.5×10^4 cells/cm^2 onto tissue culture plates in maintenance medium with 10 μM Y-27632 and iMatrix-511 silk. After 24 h, the cells were washed with PBS and treated with Essential 6 medium (Thermo Fisher Scientific) containing 100 ng/ml Activin A (R&D Systems) and 3 μM CHIR99021 (Stem RD) with or without 10 ng/ml bone morphogenetic protein (BMP)4 (PeproTech) for 24 h.
To induce anterior intermediate mesoderm, the anterior primitive streak cells were treated with 200 ng/ml fibroblast growth factor (FGF) 8 (Peprotech), 0.1 μM 4-[(E)-2-(5,6,7,8-Tetrahydro-5,5,8,8-tetramethyl-2-naphthalenyl)-1-propenyl]-benzoic acid (TTNPB; Santa Cruz Biotechnology), 1 μM A83-01 and 0.1 μM LDN193189 for 2 days. Then, the cells were replated onto Matrigel-coated plates at a density of 1×10^5 cells/cm^2 in the anterior intermediate mesoderm induction medium with 10 μM Y-27632 and incubated for an additional 24 h.
(§1) The cells were fixed with 4% PFA/PBS for 20 min at 4° C. After washing with PBS, the cells were blocked with 1% normal donkey serum (Millipore) and 3% bovine serum albumin (BSA; Nacalai Tesque)/PBST (PBS/0.25% Triton X-100) for 1 h at room temperature. Primary antibodies were diluted in blocking solution and incubated with samples overnight at 4° C. Secondary antibodies were incubated for 1 h at room temperature.
After dissociation with Accutase, the cells were fixed, permeabilized and blocked with a BD Cytofix/Cytoperm Kit (Becton Dickinson). Then the cells were incubated with primary antibodies diluted at 1:100 in blocking solution for 30 min at room temperature. After washing twice, the cells were incubated with secondary antibodies diluted at 1:500 in blocking solution for 30 min at room temperature. The cells were then analyzed using FACS AriaII cell sorter (Becton Dickinson).

[2] = system: anterior intermediate mesoderm cells; test: Induction of Wolffian duct cells from anterior intermediate mesoderm cells (immunostaining, cell counts); format: cell-based, human; conditions: for differentiation of Wolffian duct cells (OSR1^−GATA3^+PAX2^+) from anterior intermediate mesoderm cells / Total cell numbers after treatment: 3D45 cells; for Total cell numbers after treatment: FIG. 2E, mean±s.d., n=3, before treatment 1.44±0.29; for number of GATA3^+ (Wolffian duct) cells: supplementation during Wolffian duct induction
Experimental: Anterior intermediate mesoderm cells were treated with Essential 6 medium containing 1 μM CHIR99021, 0.1 μM LDN193189, 200 ng/ml FGF8 and 100 ng/ml glial cell line-derived neurotrophic factor (GDNF; R&D Systems) with or without 0.1 μM TTNPB for 2 days to enhance Wolffian duct leading edge cell induction. Then, the cells were dissociated into single cells by gentle pipetting after treatment with Accutase (Innovative Cell Technologies). The cells were seeded onto low-attachment 96-well plates (Sumitomo Bakelite) at a density of 1×10^4 cells/well in Essential 6 medium with 100 ng/ml GDNF, 200 ng/ml FGF1 (R&D Systems), 0.1 μM TTNPB, 3 μM CHIR99021 and 10 μM Thiazovivin (Santa Cruz Biotechnology) and incubated for 2 days to induce mature Wolffian duct aggregates.
as §1

[3] = added to anterior intermediate mesoderm cells, immunostaining

Cc1cccc(-c2nn(C(=S)Nc3ccccc3)cc2-c2ccnc3ccccc23)n1 [A83-01, 3-(6-Methyl-2-pyridinyl)-N-phenyl-4-(4-quinolinyl)-1H-pyrazole-1-carbothioamide]
differentiation of SOX17^+ definitive endoderm cells ([1]; 1 μM A83-01 added to FGF8 and TTNPB, immunostaining): diminished; also recorded: decreases the differentiation into definitive endoderm cells | induction of anterior intermediate mesoderm-like cells (OSR1, GATA3 immunostaining) ([1]; treatment of APS cells): without inhibiting the induction of anterior intermediate mesoderm-like cells

Cc1ccc(C2=CCC(C)(C)c3ccc(C#Cc4ccc(C(=O)O)cc4)cc32)cc1 [AGN193109]
RET expression (Wolffian duct cell marker) [2, 3]: diminished RET expression; also recorded: decreased the expression of RET

Cc1c[nH]c(-c2cnc(NCCNc3ccc(C#N)cn3)nc2-c2ccc(Cl)cc2Cl)n1 [CHIR99021, 6-[2-[4-(2,4-Dichlorophenyl)-5-(4-methyl-1H-imidazol-2-yl)pyrimidin-2-ylamino]ethylamino]pyridine-3-carbonitrile]
differentiation of Wolffian duct cells (OSR1^−GATA3^+PAX2^+) from anterior intermediate mesoderm cells ([2]; immunostaining): enhanced OSR1^−GATA3^+PAX2^− cell differentiation; also recorded: enhanced the differentiation

O=C(Nc1cccc2cccnc12)c1ccc(N2C(=O)[C@@H]3[C@H](C2=O)[C@@H]2C=C[C@H]3C2)cc1 [IWR-1]
GATA3 and PAX2 expressions [2, 3]: diminished GATA3 and PAX2 expressions | OSR1 expression [2, 3]: prolonged OSR1 expression | differentiation of Wolffian duct cells (OSR1^−GATA3^+PAX2^+) from anterior intermediate mesoderm cells ([2]; immunostaining): inhibited the Wolffian duct induction

c1ccc2c(-c3cnn4cc(-c5ccc(N6CCNCC6)cc5)cnc34)ccnc2c1 [LDN193189, 4-(6-(4-(piperazin-1-yl)phenyl)pyrazolo[1,5-a]pyrimidin-3-yl)quinoline]
differentiation of Wolffian duct cells (OSR1^−GATA3^+PAX2^+) from anterior intermediate mesoderm cells ([2]; immunostaining): enhanced the Wolffian duct induction | effect on induction efficiency / differentiation of OSR1^+GATA3^+ cells [1]: did not change the induction efficiency

C/C(=C\c1ccc(C(=O)O)cc1)c1ccc2c(c1)C(C)(C)CCC2(C)C [TTNPB, 4-[(E)-2-(5,6,7,8-Tetrahydro-5,5,8,8-tetramethyl-2-naphthalenyl)-1-propenyl]-benzoic acid]
differentiation of Wolffian duct cells (OSR1^−GATA3^+PAX2^+) from anterior intermediate mesoderm cells ([2]; immunostaining): early Wolffian duct cells were stably generated

B1: FGF8: fibroblast growth factor (FGF) 8 (Peprotech) (protein, UniProt P55075 23-233, looked up)
Fibroblast growth factor 8: QEGPGRGPALGRELASLFRAGREPQGVSQQHVREQSLVTDQLSRRLIRTYQLYSRTSGKHVQVLANKRINAMAEDGDPFAKLIVETDTFGSRVRVRGAETGLYICMNKKGKLIAKSNGKGKDCVFTEIVLENNYTALQNAKYEGWYMAFTRKGRPRKGSKTRQHQREVHFMKRLPRGHHTTEQSLRFEFLNYPPFTRSLRGSQRTWAPEPR
Total cell numbers after treatment [2]: 4.69±0.65 ×10^5/cm^2 | differentiation of Wolffian duct cells (OSR1^−GATA3^+PAX2^+) from anterior intermediate mesoderm cells ([2]; immunostaining): enhanced the Wolffian duct induction | number of GATA3^+ (Wolffian duct) cells [2]: increased the number of GATA3^+ cells

B2: BMP4: bone morphogenetic protein (BMP)4 (PeproTech) (protein, UniProt P12644 293-408, looked up)
Bone morphogenetic protein 4: SPKHHSQRARKKNKNCRRHSLYVDFSDVGWNDWIVAPPGYQAFYCHGDCPFPLADHLNSTNHAIVQTLVNSVNSSIPKACCVPTELSAISMLYLDEYDKVVLKNYQEMVVEGCGCR
differentiation of Wolffian duct cells (OSR1^−GATA3^+PAX2^+) from anterior intermediate mesoderm cells ([2]; immunostaining): suppressed Wolffian duct differentiation; also recorded: inhibited the differentiation of Wolffian duct cells | induction rates of GATA3^+ cells ([1]; FIG. 1H, 10 ng/ml BMP4 at APS induction stage, 0.1 μM LDN193189 at anterior IM induction stage, mean±s.d., n=4): 69.1±13.9% | effect on induction efficiency / differentiation of OSR1^+GATA3^+ cells [1]: inhibited the differentiation | OSR1^+GATA3^+ cell induction rate ([1]; added to the anterior primitive streak induction stage): around 70 % of the total cells obtained | effect on OSR1^+GATA3^+ cell induction ([1]; added to the anterior primitive streak induction stage, 10 ng/ml BMP4, immunostaining): facilitated the OSR1^+GATA3^+ cell induction

B3: GDNF: glial cell line-derived neurotrophic factor (R&D Systems) (protein, UniProt P39905 78-211, looked up)
Glial cell line-derived …: SPDKQMAVLPRRERNRQAAAANPENSRGKGRRGQRGKNRGCVLTAIHLNVTDLGLGYETKEELIFRYCSGSCDAAETTYDKILKNLSRNRRLVSDKVGQACCRPIAFDDDLSFLDDNLVYHILRKHSAKRCGCI
Total cell numbers after treatment [2]: 2.37±0.56 ×10^5/cm^2 | number of GATA3^+ (Wolffian duct) cells [2]: increased the number of GATA3^+ Wolffian duct cells
